Test results reported in ChEMBL document CHEMBL1142268, “Histone deacetylase inhibitors: from bench to clinic” (J Med Chem, 2008).

What was measured:
MM96L = test: Inhibition of human MM96L cells; assay type: functional, cell-based
[1] = Growth inhibition of human neonatal foreskin fibroblasts cells; assay type: functional, cell-based; conditions: Fibroblast
Histone deacetylase [2] = test: Inhibition of human liver HDAC
CCRF-CEM = test: Inhibition of human CEM cells assessed as viability; assay type: functional, cell-based
Histone deacetylase [3] = test: Inhibition of HDAC in human CEM cells; assay type: cell-based; conditions: ccrf-cem; read-out: IC50
Histone deacetylase 1 [4] = biological target: T1, Histone deacetylase 1 (Homo sapiens, UniProt Q13547)
T1 sequence (Q13547 whole entry): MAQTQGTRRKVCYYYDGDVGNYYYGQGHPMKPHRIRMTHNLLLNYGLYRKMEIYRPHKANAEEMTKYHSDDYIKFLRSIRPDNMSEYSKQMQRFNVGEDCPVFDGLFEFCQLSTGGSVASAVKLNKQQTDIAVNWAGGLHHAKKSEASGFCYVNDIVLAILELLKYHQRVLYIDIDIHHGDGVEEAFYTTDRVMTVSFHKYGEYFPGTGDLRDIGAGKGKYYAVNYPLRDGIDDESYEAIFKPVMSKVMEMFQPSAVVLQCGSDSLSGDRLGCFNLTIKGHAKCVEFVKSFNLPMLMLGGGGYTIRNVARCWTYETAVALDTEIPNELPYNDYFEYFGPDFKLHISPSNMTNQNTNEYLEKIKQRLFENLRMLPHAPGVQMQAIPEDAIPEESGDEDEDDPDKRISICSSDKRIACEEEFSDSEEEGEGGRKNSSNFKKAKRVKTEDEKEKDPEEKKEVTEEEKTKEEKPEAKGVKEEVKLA
Description: Inhibition of human HDAC1

Histone deacetylase 1 [5] = biological target: T1, Histone deacetylase 1; test: Inhibition of HDAC1 from human HeLa cells; assay type: cell-based
A549 = test: cells; conditions: Homo sapiens
Description: Antiproliferative activity against human A549 cells

MKN-45 = test: Antiproliferative activity against human MKN45 cells; assay type: functional, cell-based
Histone deacetylase [6] = test: Inhibition of HDAC from human SNU16 cells; conditions: snu-16
SK-BR-3 = test: Antiproliferative activity against human SKBR3 cells; assay type: functional, cell-based
[7] = Inhibition of human CCD1059SK cells; assay type: functional, cell-based
HCT-116 = test: Inhibition of human HCT116 cells; assay type: functional, cell-based
MCF7 = test: Inhibition of human MCF7 cells; assay type: functional, cell-based
SW-620 = test: Inhibition of human SW620 cells; assay type: functional, cell-based
Histone deacetylase [8] = test: Inhibition of HDAC from human HeLa cells; assay type: cell-based
SQ20B = test: Inhibition of human SQ20B cells; assay type: functional, cell-based
Histone deacetylase [9] = test: Inhibition of HDAC from human K562 cells; assay type: cell-based
HT-1080 = test: Inhibition of human HT1080 cells; assay type: functional, cell-based
Histone deacetylase 8 = biological target: T2, Histone deacetylase 8 (Homo sapiens, UniProt Q9BY41)
T2 sequence (Q9BY41 whole entry): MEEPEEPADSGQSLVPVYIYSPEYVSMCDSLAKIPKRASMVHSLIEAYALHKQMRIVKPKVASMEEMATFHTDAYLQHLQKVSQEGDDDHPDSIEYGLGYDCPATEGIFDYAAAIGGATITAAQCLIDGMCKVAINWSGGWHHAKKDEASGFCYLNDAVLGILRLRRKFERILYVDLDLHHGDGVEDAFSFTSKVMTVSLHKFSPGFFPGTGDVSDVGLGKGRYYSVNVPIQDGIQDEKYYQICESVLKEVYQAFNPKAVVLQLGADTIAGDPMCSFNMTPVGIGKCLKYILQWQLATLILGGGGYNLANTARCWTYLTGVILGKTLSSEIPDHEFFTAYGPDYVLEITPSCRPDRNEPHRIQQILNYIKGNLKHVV
Description: Inhibition of human HDAC8

Structure (SMILES): CN(C)c1ccc(C(=O)N[C@@H](CSCCCC(=O)NO)C(=O)NCc2ccccc2)cc1
- IC50 (MM96L): 0.14 µM
- IC50 [1]: 0.35 µM

Structure (SMILES): O=C(CCCCCS(=O)(=O)c1ccccc1)NO
- IC50 (Histone deacetylase [2]): 0.04 µM
- IC50 (CCRF-CEM): > 25 µM
- IC50 (Histone deacetylase [3]): 15.5 µM

Structure (SMILES): CC(=O)CCCCC[C@H](NC1CCCCN1C)C(=O)Nc1cccc(-c2ccccc2)c1 (some centres undefined)
- IC50 (Histone deacetylase 1 [4]): 0.079 µM
- IC50 (Histone deacetylase 1 [5]): 0.5 µM

Structure (SMILES): CN(C)c1ccc(C(=O)NCc2ccc(/C=C/C(=O)NO)cc2)cc1
- IC50 (A549): 0.48 µM
- IC50 (MKN-45): 0.83 µM
- IC50 (Histone deacetylase [6]): 0.172 µM
- IC50 (SK-BR-3): 0.16 µM

Structure (SMILES): CN(C)c1ccc([S+]([O-])CCCCCC(=O)NO)cc1 (centres undefined)
- IC50 (Histone deacetylase [2]): 0.18 µM
- IC50 (CCRF-CEM): 3.4 µM
- IC50 (Histone deacetylase [3]): 2.24 µM

Structure (SMILES): Nc1ccccc1NC(=O)c1ccc(CN(CCO)Cc2ccccc2)cc1
- IC50 [7]: 19.4 µM
- IC50 (A549): 20.5 µM
- IC50 (HCT-116): 0.9 µM
- IC50 (MCF7): 10 µM
- IC50 (SW-620): 3.3 µM
- IC50 (SK-BR-3): 3.9 µM

Structure (SMILES): CC(=O)CCCCC[C@H](NC(=O)c1cncs1)C(=O)NCCc1c(-c2ccccc2)[nH]c2ccccc12
- IC50 (Histone deacetylase 1 [5]): 3 µM

Structure (SMILES): CN(C)c1ccc(CNC(=O)NCCCCC(=O)NO)cc1
- IC50 (Histone deacetylase [8]): 0.8 µM
- IC50 (SQ20B): 50 µM

Structure (SMILES): CC(=O)CCCCC[C@H](NC(=O)CCN1CCCCC1)C(=O)NCCc1c(-c2ccccc2)[nH]c2ccccc12
- IC50 (Histone deacetylase 1 [4]): 0.19 µM
- IC50 (Histone deacetylase 1 [5]): < 0.39 µM

Structure (SMILES): COc1ccc(CN(CCO)Cc2ccc(C(=O)Nc3ccccc3N)cc2)cc1
- IC50 [7]: 18.4 µM
- IC50 (A549): 17.3 µM
- IC50 (HCT-116): 0.8 µM
- IC50 (MCF7): 4.9 µM
- IC50 (SW-620): 2.1 µM
- IC50 (SK-BR-3): 3.4 µM

Structure (SMILES): CN(C)c1ccc(CNC(=O)NCCCCCCCC(=O)NO)cc1
- IC50 (Histone deacetylase [8]): 0.7 µM
- IC50 (SQ20B): 50 µM

Structure (SMILES): O=C(CCCCCCc1ncc(-c2ccccc2)o1)NO
- IC50 (Histone deacetylase [9]): 0.0098 µM
- IC50 (HT-1080): 8.41 µM

Structure (SMILES): O=C(CCCCCCc1nc(-c2cccc(Br)c2)cs1)NO
- IC50 (Histone deacetylase [9]): 0.0058 µM
- IC50 (HT-1080): 10.1 µM

Structure (SMILES): O=C(CCCCCCc1cnc(-c2ccc(OC(F)(F)F)cc2)o1)NO
- IC50 (Histone deacetylase [9]): 0.089 µM
- IC50 (HT-1080): 5.14 µM

Structure (SMILES): CC(=O)SCC(=O)NCCCCCC(=O)Nc1ccccc1
- IC50 (Histone deacetylase [8]): 20.1 µM
- IC50 (Histone deacetylase 8): > 40 µM

Structure (SMILES): Nc1ccccc1NC(=O)c1ccc(CN(CCO)Cc2ccc(F)c(F)c2)cc1
- IC50 [7]: 94.8 µM
- IC50 (A549): 24.2 µM
- IC50 (HCT-116): 0.8 µM
- IC50 (MCF7): 10.4 µM
- IC50 (SW-620): 3.6 µM
- IC50 (SK-BR-3): 3.6 µM

Structure (SMILES): O=C(CCCCCCc1nc(-c2ccccc2)cs1)NO
- IC50 (Histone deacetylase [9]): 0.019 µM
- IC50 (HT-1080): 5.07 µM
